# From paper PMC9404653, “EphA4 targeting agents protect motor neurons from cell death induced by amyotrophic lateral sclerosis -astrocytes” (iScience, 2022)
# Where two headings read alike, the source gives them in different places. Non-standard residues stand in square brackets, D forms with d. Residues, ends and D or L forms follow the SMILES beside them. *: point of attachment. Cyclohexanoyl(1S,3S-3-NH2) = N[C@H]1CCC[C@H](C(=O)*)C1; Trp(5-OH) = N[C@@H](Cc1c[nH]c2ccc(O)cc12)C(=O)O; NH(4-morpholinophenyl) = c1cc(N2CCOCC2)ccc1N*; Bip = N[C@@H](Cc1ccc(-c2ccccc2)cc1)C(=O)O; hArg = N=C(N)NCCCC[C@H](N)C(=O)O; X1 = c1cc(N2CCNCC2)ccc1N*
# B1: ephrinA4: intact ephrin ligand of EphA4 (protein, UniProt P52798 26-170, looked up)
# Ephrin-A4: LRHVVYWNSSNPRLLRGDAVVELGLNDYLDIVCPHYEGPGPPEGPETFALYMVDWPGYESCQAEGPRAYKRWVCSLPFGHVQFSEKIQRFTPFSLGFEFLPGETYYYISVPTPESSGQCLRLQVSVCCKERKSESAHPVGSPGES
# B2: ephrinA5: intact ephrin ligand of EphA4 (protein, UniProt P52803 21-203, looked up)
# Ephrin-A5: QDPGSKAVADRYAVYWNSSNPRFQRGDYHIDVCINDYLDVFCPHYEDSVPEDKTERYVLYMVNFDGYSACDHTSKGFKRWECNRPHSPNGPLKFSEKFQLFTPFSLGFEFRPGREYFYISSAIPDNGRRSCLKLKVFVRPTNSCMKTIGVHDRVFDVNDKVENSLEPADDTVHESAEPSRGEN
# Assays:
# [1] = system: motor neurons co-cultured with patient iAstrocytes (sALS, mutant SOD1); assay: Patient iAstrocyte:motor neuron co-culture, motor neuron survival; details: 10 μM, sALS patient iAs (ALS1; second patient line Figure S3)
# Protocol: Here, we tested the effectiveness of synthetic agonists by co-culturing patient iAs (2 sALS and 3 mtSOD1, Sup. Table 1) and mouse motor neurons in the presence of 123C4 (Figure 5A). Three days following co-culture surviving motor neurons were imaged (Figure 5B).
# At the time of motor neuron seeding, the drug was removed via aspiration, and motor neurons in freshly prepared media were cultured on the iAs monolayer. In addition, 123C4 was also added at the time of co-culture as described in Figure 5A.
# To accommodate a compound screen of this size, co-culture assays were adapted to a 384 well format.
# Induced Astrocytes were generated by seeding a low quantity of NPCs into astrocyte medium (DMEM media containing 10% FBS and 0.2% N2) for five days. Following differentiation, iAstrocytes were lifted and seeded into a 96 well (10,000 cells per well) or 384 well (2500 cells per well) plate. Differentiations were repeated at separate passages and each differentiation was counted as an independent experiment.
# Cells are sorted through a 100 μm tip with sheath pressure of 27. GFP + motor neurons were seeded in a 96 well plate (10,000 cells per well) or 384 well (1,000 cells per well) in triplicate for each condition. Co-cultures were imaged with InCell Analyzer 6000 automated microscopy system for up to six days. […]
# [2] = target: T1, EphA4-LBD (Homo sapiens, UniProt P54764); assay: 2D [13C,1H] NMR chemical shift perturbation of 13Cε-Met labeled EphA4-LBD; format: binding; details: for Chemical shift perturbation to Met 115 (G-H loop): 13Cε-Met labeled EphA4-LBD; for Δδ Met 60 / Δδ Met 164: weight average 1H/13C chemical shift perturbation, 20 μM EphA4-LBD, 298 K
# T1 construct: Met labeled EphA4-LBD (29-209) (20 μM) in absence (blue)
# Protocol: (§1) Previously, we deployed the HTS by NMR (High-throughput Screening by Nuclear Magnetic Resonance) approach targeting the EphA4 ligand-binding domain to identify possible ligands from a tri-peptide positional scanning library consisting of ∼125,000 agents ([Wu et al., 2013]). Initial screen and subsequent structure-activity relationships studies lead to agent 123C4 (Table 1), with an affinity for the isolated EphA4 ligand-binding domain (LBD) of ∼400 nM by isothermal titration calorimetry (ITC) ([Wu et al., 2013], [2017]). In follow-up studies, we derived a new combinatorial library based on the critical N-terminal aliphatic amine of 123C4 (a common feature also of antagonistic peptides) ([Olson et al., 2016]; [Wu et al., 2013]) and exploited our previous experience with the fHTS by NMR ([Baggio et al., 2017]), we rapidly identified a new hit molecule ([Baggio et al., 2021]). We also developed an efficient strategy to anticipate if ligand binding would induce changes in EphA4 conformation that are more compatible with agonist versus antagonist binding ([Baggio et al., 2021]). This was accomplished by protein NMR using EphA4-LBD that is uniformly labeled with ^13C^ε-methionine ([Wu et al., 2017]). […] In particular, EphA4 residues Met 164, Met 60 (in the binding site), and Met 115 are located in the D-E loop, J-K loop, and G-H loop of the EphA4-LBD, respectively (Figures 1A-1C). […] For example, we reported that the 13mer antagonistic cyclic peptide APY-d3 ([Olson et al., 2016]) induces changes not only in binding site Met 164 and Met 60 resonances, but also in Met 115, located in the G-H loop, that is at the EphA4-LBD dimerization interface (Figure 1D). […] With these considerations in mind, ligand 150D4 was previously derived as described in our recent studies (Table 1; [Baggio et al., 2021]). […] Dissociation constant determination was obtained via isothermal titration calorimetry (ITC) measurements (Table 1, Figure 2). Similarly, selectivity studies were performed via ITC and ligand-binding domain constructs representing the two most closely related Eph domains, namely EphA3 and EphA2 (Table 1). […] These studies culminated in the identification of agonistic agents targeting the EphA4 ligand-binding domain.
# NMR spectra were acquired on Bruker Avance III 700MHz spectrometer equipped with a TCI cryoprobe. All NMR data were processed and analyzed using TOPSPIN 3.6.1 (Bruker, Billerica, MA, USA). 2D-[^13C,^1H]-HSQC experiments were acquired with 20 μM proteins using 16 scans with 2,048 and 256 complex data points in the ^1H and […] dimensions, respectively, at 298 K. Chemical shift changes (Δδ) in the 2D [^13C, ^1H] spectra were calculated as weight average perturbations observed in the ^1H and ^13C dimensions using the following Equation: Δδ=1/2∗[(Δ^1H)^2+(0.3∗Δ^13C)^2]
# [3] = Aqueous solubility by 1H NMR; format: physicochemical; details: water; determined by 1H NMR
# [4] = target: T2, EphA4 ligand-binding domain (Homo sapiens, UniProt P54764); assay: Isothermal titration calorimetry (ITC) vs EphA4-LBD; details: for N (ITC stoichiometry): ITC curve, Figure 2C/2D; for Kd: ITC, 25°C, 25 mM Tris pH 7.5, 150 mM NaCl, 1% DMSO, mean ± SE, n = 2
# Protocol: as §1
# Isothermal titration calorimetry measurements were performed using the Affinity ITC Autosampler from TA Instruments (New Castle, DE). The titrations were performed in a reverse fashion by titrating the protein into the ligand solution. […] Each titration was performed twice and individually using the ITCRun software, analyzed using NanoAnalyze software (TA Instruments, New Castle, DE) and subsequently exported into Microsoft Excel. […]
# [5] = target: ephrinA4 or ephrinA5 (Homo sapiens) (UniProt P52803); details: cited from earlier work
# [6] = target: T2, EphA4 ligand-binding domain; details: ref Bowden et al., 2009a, 2009b, read-out: Affinity of intact ephrin ligands for EphA4; cited from earlier work
# T1 sequence (P54764 29-209): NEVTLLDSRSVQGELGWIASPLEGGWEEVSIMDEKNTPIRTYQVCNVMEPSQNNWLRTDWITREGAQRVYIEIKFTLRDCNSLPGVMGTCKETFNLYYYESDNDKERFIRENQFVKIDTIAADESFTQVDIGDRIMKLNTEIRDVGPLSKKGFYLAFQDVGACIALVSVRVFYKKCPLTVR
# T2 sequence (P54764 30-209 limits assumed): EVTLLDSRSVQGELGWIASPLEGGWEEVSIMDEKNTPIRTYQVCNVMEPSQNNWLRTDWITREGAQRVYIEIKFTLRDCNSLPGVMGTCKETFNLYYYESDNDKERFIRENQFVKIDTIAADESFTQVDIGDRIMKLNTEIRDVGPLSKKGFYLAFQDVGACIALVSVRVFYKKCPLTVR
Molecule,Motor neuron survival [1],Chemical shift perturbation to Met 115 (G-H loop) [2],Δδ Met 60 [2],Δδ Met 164 [2],solubility [3] [mM],N (ITC stoichiometry) [4],Kd [4] [nM],Kd [5] [nM],Kd [6] [nM]
"N=C(N)NCCCC[C@H](NC(=O)[C@H](Cc1ccc(-c2ccccc2)cc1)NC(=O)[C@H](Cc1c[nH]c2ccc(O)cc12)NC(=O)[C@H]1CCC[C@H](N)C1)C(=O)NCC(=O)Nc1ccc(N2CCNCC2)cc1 [150E8, (1S,3S)-N-((S)-1-(((S)-3-([1,1'-biphenyl]-4-yl)-1-(((S)-6-guanidino-1-oxo-1-((2-oxo-2-((4-(piperazin-1-yl)phenyl)amino)ethyl)amino)hexan-2-yl)amino)-1-oxopropan-2-yl)amino)-3-(5-hydroxy-1H-indol-3-yl)-1-oxopropan-2-yl)-3-aminocyclohexane-1-carboxamide] ({Cyclohexanoyl(1S,3S-3-NH2)}-[Trp(5-OH)][Bip][hArg]G-X1)",effective at preventing motor neuron death,do not alter loop G-H,++ (0.05 ppm < ++ < 0.1 ppm),++++ (++++ > 0.3 ppm),> 50,1.01,94.3 ± 4.4,,
"C[C@@H](NC(=O)[C@H](CCCCNC(=N)N)NC(=O)[C@H](Cc1ccc(-c2ccccc2)cc1)NC(=O)[C@H](Cc1c[nH]c2ccc(O)cc12)NC(=O)[C@H]1CCC[C@H](N)C1)C(=O)Nc1ccc(N2CCOCC2)cc1 [150E7, (1S,3S)-N-((S)-1-(((S)-3-([1,1'-biphenyl]-4-yl)-1-(((S)-6-guanidino-1-(((R)-1-((4-morpholinophenyl)amino)-1-oxopropan-2-yl)amino)-1-oxohexan-2-yl)amino)-1-oxopropan-2-yl)amino)-3-(5-hydroxy-1H-indol-3-yl)-1-oxopropan-2-yl)-3-aminocyclohexane-1-carboxamide] ({Cyclohexanoyl(1S,3S-3-NH2)}-[Trp(5-OH)][Bip][hArg][dA]-{NH(4-morpholinophenyl)})",effective at preventing motor neuron death,do not alter loop G-H,+++ (+++ > 0.1 ppm),++ (0.2 ppm < ++ < 0.25 ppm),> 50,0.99,129 ± 4.5,,
EphA4 ligand-binding domain (from UniProt P54764),,,,,,,,360,
B1,,,,,,,,,~360
B2,,,,,,,,,~360
